Experimental data: paper PMC7738871, “Covalent modification of Keap1 at Cys77 and Cys434 by pubescenoside a suppresses oxidative stress-induced NLRP3 inflammasome activation in myocardial ischemia-reperfusion injury” (Theranostics, 2021)
pKd: −log10 of the molar value.

Assays:
Keap1 C273S = target: T1, Keap1 C273S (Homo sapiens, UniProt Q14145, C273S); assay: ITC titration of PBA with Keap1-C273S; assay type: binding; conditions: 25 ℃
T1 construct: His (N); made in house; host or cells: E. coli BL21 (DE3)
Method: The Keap1 was amplified by PCR using a human cDNA library, and was subcloned into the vector pET28-TEV, which contained one tobacco etch virus (TEV) protease cleavage site at the upstream multiple cloning site. The protein was expressed in E. coli BL21 (DE3) cells and incubated at 37 °C until the OD600 value reached 0.6, using 0.2 mM isopropyl β-D-1-thiogalactopyranoside (IPTG) overnight induction at 18 °C. The cells were isolated by centrifugation, resuspended in ice-cold lysis buffer and lysed by cryogenic overpressure cell breaker at 1,200 psi. The lysates were centrifuged for 60 min at 14,000 rpm to obtain the supernatant. Gravity flow purification of Keap1 protein was obtained at room temperature using 1 mL of Ni-NTA and eluted in buffer containing 250 mM imidazole, followed by 1 mL of HiTrap QHP for the second step purification. The final protein was purified and validated by Superdex 200 10/300GL resin.
The mutant plasmid DNA was obtained by PCR. The PCR products were cleaved by DpnI restriction enzymes. The restriction endonuclease-cleaved mixture was subsequently transformed into E. coli DH5α. Colonies were evaluated by colony PCR and sequenced. The mutant plasmid was transformed into E. coli BL21 (DE3) after successful sequencing. The steps for expression and purification of all recombinants were described above.
Isothermal calorimetry (ITC) titration experiments were performed at 25 °C. WT Keap1, Keap1 mutants and PBA were dissolved in binding buffer (40 mM Tris-HCl pH 8.0, 250 mM NaCl). In a typical experiment, 60 μL of PBA (1 mM) was injected 19 times at 2-min intervals from a stirring syringe into the sample cell containing 300 μL of WT protein or mutants (30 μM). The first injection was 0.4 μL of PBA, and the subsequent 18 injections were 2 μL each time. The site-binding models were determined by using MicroCal Origin software.

HO-1 and NQO1 = HO-1 and NQO1 protein expression, RAW264.7; assay type: cell-based; conditions: RAW264.7, 24 h, dose-dependent
Method: Total protein was isolated from H9c2 cells, primary mouse cardiomyocytes, RAW264.7 cells and heart tissue using 1X RIPA buffer containing phosphatase and proteinase inhibitors at 4 °C. After measurement of the concentration, the cell lysates were separated by sodium dodecyl sulphate polyacrylamide gel electrophoresis (SDS-PAGE) and transferred to polyvinylidene fluoride (PVDF) membranes. The membranes were blocked in Tris-buffered saline-Tween 20 (TBST) buffer with 5% BSA for 1 h and incubated with primary antibodies (1:1000 dilution) overnight at 4 °C. After the membranes was washed by TBST buffer for three times, they were incubated with horseradish peroxidase (HRP)-conjugated secondary mouse or rabbit antibodies (1:3,000 dilution) at room temperature (RT) for 1.5 h and then detected by SuperEnhanced chemiluminescence (ECL) reaction reagents (GBCBIO Technologies Inc., Guangzhou, Guangdong, China). In brief, drop evenly the ECL working liquid onto the membrane at the ratio of 1 mL ECL working liquid and 10 cm^2 of membrane. After letting the membranes stand for 1-2 min, the bands of the respective proteins were detected with the exposure time of 10 ~60 s.

T1 sequence (Q14145 whole entry C273S): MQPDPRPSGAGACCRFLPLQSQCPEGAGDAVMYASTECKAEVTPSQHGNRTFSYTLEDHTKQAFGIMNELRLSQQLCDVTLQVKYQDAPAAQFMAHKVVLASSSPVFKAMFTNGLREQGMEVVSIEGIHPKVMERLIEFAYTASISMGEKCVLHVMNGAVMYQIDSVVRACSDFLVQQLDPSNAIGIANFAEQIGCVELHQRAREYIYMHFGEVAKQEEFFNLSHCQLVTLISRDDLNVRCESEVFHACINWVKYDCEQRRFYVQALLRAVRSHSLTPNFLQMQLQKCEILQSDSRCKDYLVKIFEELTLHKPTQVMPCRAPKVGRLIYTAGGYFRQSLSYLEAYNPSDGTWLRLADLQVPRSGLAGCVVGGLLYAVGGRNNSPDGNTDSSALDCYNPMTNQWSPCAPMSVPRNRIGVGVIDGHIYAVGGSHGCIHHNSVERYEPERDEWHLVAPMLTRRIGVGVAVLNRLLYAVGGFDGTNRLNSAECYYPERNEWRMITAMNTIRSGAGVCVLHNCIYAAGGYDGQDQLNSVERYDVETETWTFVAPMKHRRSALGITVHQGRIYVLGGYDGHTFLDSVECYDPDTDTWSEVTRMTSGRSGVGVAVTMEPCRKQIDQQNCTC

pKd (Keap1 C273S): 5.42
T△S (Keap1 C273S): 3.53 ± 0.00 kcal/mol
△G (Keap1 C273S): -7.40 ± 0.00 kcal/mol
△H (Keap1 C273S): -3.87 ± 0.271 kcal/mol
SMILES: C=C(COC(=O)C=Cc1ccc(O)c(O)c1)C(O)COC1OC(CO)C(O)C(O)C1O (centres unmarked) [PBA, pubescenoside A]
HO-1 and NQO1 expression at the protein level (HO-1 and NQO1): increased
